Key:
[1] = target: mTOR enzyme (mTOR(1360-2549)+GBL) (Homo sapiens, UniProt P42345); assay: In vitro mTOR kinase assay (TR-FRET); format: biochemical; conditions: 0.25 nM mTOR+GBL, 8 uM ATP; values tied to compounds by order of Table 1; 'x or y' = two alternative values for separated diastereomers of unassigned stereochemistry; read-out: activity level (Ki) in the mTOR kinase assay
Source text: a. In Vitro mTOR Kinase Assay
The reaction is stopped by an addition of a Terbium-labeled phospho-specific antibody, e.g., Tb-labeled anti-p4E-BP1 T37/T46, (Invitrogen, product #PR8835A), EDTA, and TR-FRET buffer solution (Invitrogen, Product #PR3756B). Product formation is detected by way of time-resolved fluorescence resonance energy transfer (TR-FRET), which occurs when the phosphorylated substrate and labeled antibody are in close proximity due to phospho-specific binding. Enzymatic activity is measured as an increase in TR-FRET signal using a Perkin Elmer Envision plate reader.
Compound activity is tested in 10 point dose curves starting at the highest final concentration of 10 uM. They are serially diluted in 100% DMSO prior to further dilution with assay buffer. […] 8 μL of solution containing 2 nM Tb-anti-p4E-BP1 antibody & 10 mM EDTA diluted TR-FRET buffer is then added and incubated for 30 minutes to stop the reaction. The plate is scanned with the Envision plate reader. Ki values are calculated in Assay Explorer using the Morrison ATP-competitive tight binding equation for Ki apparent determination.

PC3 cells = assay: In vitro cell proliferation assay; format: cell-based, human; conditions: values tied to compounds by order of Table 1
Experimental: c. In Vitro Cell Proliferation Assay Efficacy of Formula I compounds were measured by a cell proliferation assay employing the following protocol: 1. An aliquot of 20 μl of cell culture containing about 10^3 cells (PC3 or MDAMB361.1) in medium was deposited in each well of a 384-well, opaque-walled plate. 2. Control wells were prepared containing medium and without cells; Cells were allowed to settle overnight. 3. The compound was added to the experimental wells and incubated for 3 days. 4. The plates were equilibrated to room temperature for approximately 30 minutes. 5. A volume of CellTiter-Glo Reagent equal to the volume of cell culture medium present in each well was added. […] The contents were mixed for 2 minutes on an orbital shaker to induce cell lysis. 7. The plate was incubated at room temperature for 20 minutes to stabilize the luminescence signal. 8. Luminescence was recorded and reported in graphs as RLU=relative luminescence units. Alternatively, cells were seeded at optimal density in a 96 well plate and incubated for 4 days in the presence of test compound. Alamar BlueTM was subsequently added to the assay medium, and cells were incubated for 6 h before reading at 544 nm excitation, 590 nm emission. EC50 values were calculated using a sigmoidal dose response curve fit.

[2] = Homo sapiens, PC-3, with PC3 cells

mTOR enzyme (mTOR(1360-2549)+GBL), sequence (P42345 1360-2549, species assumed): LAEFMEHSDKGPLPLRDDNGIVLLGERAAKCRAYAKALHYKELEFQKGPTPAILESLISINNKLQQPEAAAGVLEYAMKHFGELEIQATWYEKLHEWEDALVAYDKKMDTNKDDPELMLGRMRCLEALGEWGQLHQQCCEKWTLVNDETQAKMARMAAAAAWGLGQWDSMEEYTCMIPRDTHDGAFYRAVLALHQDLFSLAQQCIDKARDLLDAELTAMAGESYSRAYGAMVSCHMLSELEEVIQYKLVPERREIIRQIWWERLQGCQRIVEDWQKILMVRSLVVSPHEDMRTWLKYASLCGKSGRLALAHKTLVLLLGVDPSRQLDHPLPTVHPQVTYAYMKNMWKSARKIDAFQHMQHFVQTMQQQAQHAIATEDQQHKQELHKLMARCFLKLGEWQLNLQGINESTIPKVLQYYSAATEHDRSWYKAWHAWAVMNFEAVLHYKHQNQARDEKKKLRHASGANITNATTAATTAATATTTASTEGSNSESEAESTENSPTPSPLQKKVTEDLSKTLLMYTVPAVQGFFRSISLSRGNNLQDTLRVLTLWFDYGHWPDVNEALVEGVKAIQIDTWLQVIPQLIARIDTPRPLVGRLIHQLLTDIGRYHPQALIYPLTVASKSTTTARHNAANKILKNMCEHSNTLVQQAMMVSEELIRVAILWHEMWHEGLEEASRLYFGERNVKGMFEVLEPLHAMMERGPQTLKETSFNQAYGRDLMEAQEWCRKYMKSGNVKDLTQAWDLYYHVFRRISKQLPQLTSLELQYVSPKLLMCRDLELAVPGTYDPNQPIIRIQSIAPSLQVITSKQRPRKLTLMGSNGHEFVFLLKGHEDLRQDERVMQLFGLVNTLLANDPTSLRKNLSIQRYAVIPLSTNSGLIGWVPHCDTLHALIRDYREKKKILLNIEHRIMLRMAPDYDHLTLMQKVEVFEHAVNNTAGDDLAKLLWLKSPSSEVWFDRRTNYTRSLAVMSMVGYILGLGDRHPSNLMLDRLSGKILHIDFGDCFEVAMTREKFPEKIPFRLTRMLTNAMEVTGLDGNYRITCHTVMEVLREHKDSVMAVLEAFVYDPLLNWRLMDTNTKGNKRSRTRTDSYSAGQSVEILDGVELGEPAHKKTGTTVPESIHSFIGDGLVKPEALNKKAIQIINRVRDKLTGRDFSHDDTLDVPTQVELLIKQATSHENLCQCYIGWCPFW
mTOR enzyme (mTOR(1360-2549)+GBL), sequence (Q9BVC4 whole entry partner, species assumed): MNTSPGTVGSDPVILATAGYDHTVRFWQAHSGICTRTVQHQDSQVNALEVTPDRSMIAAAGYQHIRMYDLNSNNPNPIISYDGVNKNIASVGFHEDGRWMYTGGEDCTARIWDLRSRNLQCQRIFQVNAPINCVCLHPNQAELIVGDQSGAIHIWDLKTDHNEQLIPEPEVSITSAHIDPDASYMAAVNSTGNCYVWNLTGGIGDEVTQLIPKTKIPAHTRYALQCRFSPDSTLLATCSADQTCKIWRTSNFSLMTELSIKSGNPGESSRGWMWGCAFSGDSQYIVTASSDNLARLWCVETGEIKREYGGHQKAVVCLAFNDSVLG

SMILES	Ki [1] [nM]	EC50 (PC3 cells; [2]) [nM]	EC50 (PC3 cells; with PC3 cells) [nM]
CCNC(=O)Nc1ccc(-c2nc(N3CCOC[C@@H]3C)c3c(n2)C(C)(CCn2ccnc2)OC3)cc1 (single isomer, unassigned) [Example 80 es (R)]	9	454	
CCNC(=O)Nc1ccc(-c2nc(N3CCOC[C@@H]3C)c3c(n2)C(C)(CCn2ccnc2)OC3)cc1 (single isomer, unassigned) [Example 80 es (S)]	2		316
CCNC(=O)Nc1ccc(-c2nc(N3CCOC[C@@H]3C)c3c(n2)C(C)(CCn2ccnc2C)OC3)cc1 (single isomer, unassigned) [Example 81 et (S)]	7	402	
O=C(Nc1ccc(-c2nc3c(c(N4[C@@H]5CC[C@H]4COC5)n2)CCCO3)cc1)NC1COC1 [1-(4-(4-((1R,5S)-3-oxa-8-azabicyclo[3.2.1]octan-8-yl)-6,7-dihydro-5H-pyrano[2,3-d]pyrimidin-2-yl)phenyl)-3-(oxetan-3-yl)urea]	5	238	
CCNC(=O)Nc1ccc(-c2nc3c(c(N4[C@@H]5CC[C@H]4COC5)n2)CCCO3)cc1 [1-(4-(4-((1R,5S)-3-oxa-8-azabicyclo[3.2.1]octan-8-yl)-6,7-dihydro-5H-pyrano[2,3-d]pyrimidin-2-yl)phenyl)-3-ethylurea]	1	108	
CCNC(=O)Nc1ccc(-c2nc3c(c(N4CCOC[C@@H]4C)n2)COC(COCc2ccccc2)C3)cc1 (stereo partly drawn) [1-(4-(7-(benzyloxymethyl)-4-((S)-3-methylmorpholino)-7,8-dihydro-5H-pyrano[4,3-d]pyrimidin-2-yl)phenyl)-3-ethylurea]	16	585	
CCNC(=O)Nc1ccc(-c2nc3c(c(N4CCOCC4)n2)COC(c2ccccn2)C3)cc1 (centres unmarked) [1-ethyl-3-(4-(4-morpholino-7-(pyridin-2-yl)-7,8-dihydro-5H-pyrano[4,3-d]pyrimidin-2-yl)phenyl)urea]	27	914	
CCNC(=O)Nc1ccc(-c2nc(N3CCOC[C@@H]3C)c3c(n2)[C@@](C)(CC(C)O)OC3)cc1 (stereo partly drawn) [1-ethyl-3-(4-((7R)-7-(2-hydroxypropyl)-7-methyl-4-((S)-3-methylmorpholino)-5,7-dihydrofuro[3,4-d]pyrimidin-2-yl)phenyl)urea]	2	39	
CCNC(=O)Nc1ccc(-c2nc(N3CCOC[C@@H]3C)c3c(n2)[C@](C)(CC(C)O)OC3)cc1 (stereo partly drawn) [1-ethyl-3-(4-((7S)-7-(2-hydroxypropyl)-7-methyl-4-((S)-3-methylmorpholino)-5,7-dihydrofuro[3,4-d]pyrimidin-2-yl)phenyl)urea]	2	25	
C[C@H]1COCCN1c1nc(-c2ccc(Nc3nccc(=O)[nH]3)cc2)nc2c1COC(CO)C2 (stereo partly drawn) [2-(4-(7-(hydroxymethyl)-4-((S)-3-methylmorpholino)-7,8-dihydro-5H-pyrano[4,3-d]pyrimidin-2-yl)phenylamino)pyrimidin-4(3H)-one]	4	2800	
CCNC(=O)Nc1ccc(-c2nc3c(c(N4CCOC[C@@H]4C)n2)COC(C)(C)C3)cc1 [(S)-1-(4-(7,7-dimethyl-4-(3-methylmorpholino)-7,8-dihydro-5H-pyrano[4,3-d]pyrimidin-2-yl)phenyl)-3-ethylurea]	3	50	
CCNC(=O)Nc1ccc(-c2nc3c(c(N4CCOC[C@@H]4CC)n2)CCCO3)cc1 [Example 2, (S)-1-ethyl-3-(4-(4-(3-ethylmorpholino)-6,7-dihydro-5H-pyrano[2,3-d]pyrimidin-2-yl)phenyl)urea]	1	144	
CCNC(=O)Nc1ccc(-c2nc3c(c(N4C[C@@H]5C[C@H]4CO5)n2)CCCO3)cc1 [Example 3, 1-(4-(4-((1S,4S)-2-oxa-5-azabicyclo[2.2.1]heptan-5-yl)-6,7-dihydro-5H-pyrano[2,3-d]pyrimidin-2-yl)phenyl)-3-ethylurea]	22	1200	
CC[C@H]1COCCN1c1nc(-c2ccc(Nc3nccc(=O)[nH]3)cc2)nc2c1COCC2 [Example 4, (S)-2-(4-(4-(3-ethylmorpholino)-7,8-dihydro-5H-pyrano[4,3-d]pyrimidin-2-yl)phenylamino)pyrimidin-4(3H)-one]	1	30	
C=CC[C@@]1(C)OCc2c(N3CCOCC3)nc(-c3ccc(NC(=O)NCC)cc3)nc21 [Example 73 eb (R), (R)-1-(4-(7-allyl-7-methyl-4-morpholino-5,7-dihydrofuro[3,4-d]pyrimidin-2-yl)phenyl)-3-ethylurea]		96.1	
C=CC[C@@]1(C)OCc2c(N3C[C@H]4CC[C@@H](C3)O4)nc(-c3ccc(NC(=O)NCC)cc3)nc21 [Example 74 eh (R), 1-(4-((R)-7-allyl-4-((1R,5S)-8-oxa-3-azabicyclo[3.2.1]octan-3-yl)-7-methyl-5,7-dihydrofuro[3,4-d]pyrimidin-2-yl)phenyl)-3-ethylurea]		95	
C=CC[C@]1(C)OCc2c(N3C[C@H]4CC[C@@H](C3)O4)nc(-c3ccc(NC(=O)NCC)cc3)nc21 [Example 74 eh (S), 1-(4-((S)-7-allyl-4-((1R,5S)-8-oxa-3-azabicyclo[3.2.1]octan-3-yl)-7-methyl-5,7-dihydrofuro[3,4-d]pyrimidin-2-yl)phenyl)-3-ethylurea]		153	
CCC[C@@]1(C)OCc2c(N3C[C@H]4CC[C@@H](C3)O4)nc(-c3ccc(NC(=O)NCC)cc3)nc21 [Example 74 ej (R), 1-(4-((R)-4-((1R,5S)-8-oxa-3-azabicyclo[3.2.1]octan-3-yl)-7-methyl-7-propyl-5,7-dihydrofuro[3,4-d]pyrimidin-2-yl)phenyl)-3-ethylurea]		19	
CCC[C@]1(C)OCc2c(N3C[C@H]4CC[C@@H](C3)O4)nc(-c3ccc(NC(=O)NCC)cc3)nc21 [Example 74 ej (S), 1-(4-((S)-4-((1R,5S)-8-oxa-3-azabicyclo[3.2.1]octan-3-yl)-7-methyl-7-propyl-5,7-dihydrofuro[3,4-d]pyrimidin-2-yl)phenyl)-3-ethylurea]		51	
CCNC(=O)Nc1ccc(-c2nc(N3CCOC[C@@H]3C)c3c(n2)[C@@](C)(CCCO)OC3)cc1 [Example 75 el (R), 1-ethyl-3-(4-((R)-7-(3-hydroxypropyl)-7-methyl-4-((S)-3-methylmorpholino)-5,7-dihydrofuro[3,4-d]pyrimidin-2-yl)phenyl)urea]		322	
CCNC(=O)Nc1ccc(-c2nc(N3CCOC[C@@H]3C)c3c(n2)[C@](C)(CCCO)OC3)cc1 [Example 75 el (S), 1-ethyl-3-(4-((S)-7-(3-hydroxypropyl)-7-methyl-4-((S)-3-methylmorpholino)-5,7-dihydrofuro[3,4-d]pyrimidin-2-yl)phenyl)urea]		62	
CCNC(=O)Nc1ccc(-c2nc(N3CCOCC3C)c3c(n2)C(C)(CCOc2ccccc2)OC3)cc1 (centres unmarked) [Example 91 ft^1, 1-ethyl-3-(4-(7-methyl-4-(3-methylmorpholino)-7-(2-phenoxyethyl)-5,7-dihydrofuro[3,4-d]pyrimidin-2-yl)phenyl)urea]		297	
CCNC(=O)Nc1ccc(-c2nc(N3CCOC[C@@H]3C)c3c(n2)[C@](C)(CCOc2ccncc2)OC3)cc1 [Example 92 fu^1]		238	
CCNC(=O)Nc1ccc(-c2nc3c(c(N4C[C@H]5CC[C@@H](C4)O5)n2)COC3)cc1 [Example 99, 1-(4-(4-(8-oxa-3-azabicyclo[3.2.1]octan-3-yl)-5,7-dihydrofuro[3,4-d]pyrimidin-2-yl)phenyl)-3-ethylurea]		154	

— patent US20100331305A1, “OXO-HETEROCYCLE FUSED PYRIMIDINE COMPOUNDS, COMPOSITIONS AND METHODS OF USE” (Genentech, Inc., priority 2009, published 2010)
